Measurements published in patent US6908919B2, “Substituted polycyclic aryl and heteroaryl pyrazinones useful for selective inhibition of the coagulation cascade” (Pharmacia Corporation, priority 1999, dated 2005).

Columns and labels:
[1] = biological target: T1, recombinant soluble tissue factor and recombinant human factor VIIa (TF-VIIa) (Homo sapiens, UniProt P08709); assay: TF-VIIa Assay; format: biochemical; details: for IC50: read-out: IC50 TF-VIIa
T1 construct: conversion of coagulation factor VII to VIIa by Xa; purchased American Diagnostica, Greenwich Conn; host or cells: VIIa purchased; soluble TF made in house in E. coli

Human factor Xa = Human factor Xa (Homo sapiens, UniProt P00742); assay: Xa Assay; format: biochemical; parameters: purchased Enzyme Research Laboratories, South Bend Ind; details: for % Inhibition Factor Xa (30 µM): at 30 µM inhibitor
Human thrombin = Human thrombin (Homo sapiens, UniProt P00734)

Chain of Human factor Xa (P00742 41-179 limits assumed): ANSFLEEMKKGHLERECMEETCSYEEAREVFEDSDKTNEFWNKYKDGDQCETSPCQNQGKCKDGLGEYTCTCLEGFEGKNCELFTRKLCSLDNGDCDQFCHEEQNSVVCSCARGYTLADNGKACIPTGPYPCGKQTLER
Chain of Human factor Xa (P00742 235-488 limits assumed): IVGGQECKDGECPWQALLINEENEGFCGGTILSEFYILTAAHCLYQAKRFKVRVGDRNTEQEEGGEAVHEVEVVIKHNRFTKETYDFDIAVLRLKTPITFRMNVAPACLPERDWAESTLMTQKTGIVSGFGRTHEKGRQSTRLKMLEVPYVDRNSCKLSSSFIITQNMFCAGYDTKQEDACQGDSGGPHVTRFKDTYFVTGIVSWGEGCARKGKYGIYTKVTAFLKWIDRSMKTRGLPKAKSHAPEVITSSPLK
T1 sequence (P08709 61-212 limits assumed): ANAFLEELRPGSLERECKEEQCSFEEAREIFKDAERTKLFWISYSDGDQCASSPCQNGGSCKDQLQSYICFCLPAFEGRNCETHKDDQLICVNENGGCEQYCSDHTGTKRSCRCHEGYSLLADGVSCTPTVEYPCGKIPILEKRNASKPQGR
T1 sequence (P08709 213-466 limits assumed): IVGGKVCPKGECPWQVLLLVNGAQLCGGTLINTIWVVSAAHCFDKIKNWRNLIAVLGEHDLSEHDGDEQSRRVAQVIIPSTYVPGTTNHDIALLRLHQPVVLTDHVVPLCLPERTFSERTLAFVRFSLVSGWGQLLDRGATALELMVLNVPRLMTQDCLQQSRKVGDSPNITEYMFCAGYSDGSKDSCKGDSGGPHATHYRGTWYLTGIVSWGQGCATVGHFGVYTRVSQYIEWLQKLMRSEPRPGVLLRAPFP
T1 sequence (P13726 33-251 partner limits assumed): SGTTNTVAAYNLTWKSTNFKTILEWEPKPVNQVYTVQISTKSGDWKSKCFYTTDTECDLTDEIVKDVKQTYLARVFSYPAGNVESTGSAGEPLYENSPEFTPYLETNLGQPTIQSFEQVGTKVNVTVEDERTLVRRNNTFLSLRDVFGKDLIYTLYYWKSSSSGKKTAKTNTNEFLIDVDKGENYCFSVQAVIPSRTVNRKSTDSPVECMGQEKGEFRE

SMILES	IC50 [1] [µM]	IC50 (Human factor Xa) [µM]	% Inhibition Thrombin II (30 µM) (Human thrombin) [%]	% Inhibition Factor Xa (30 µM) (Human factor Xa) [%]	inhibition at 30 µM ([1]; 1 h, at 30 µM inhibitor) [%]
N=C(N)c1ccc(CNC(=O)Cn2c(-c3cc(N)cc(C(=O)O)c3)cnc(NC3CCC3)c2=O)cc1 [Example 118]	0.052	52.3	3	–	–
N=C(N)c1ccc(CNC(=O)Cn2c(-c3cc(N)cc(N)c3)cnc(NC3CCC3)c2=O)cc1 [Example 119]	0.01	–	45	26	–
CN(C)CCNC(=N)c1ccc(CNC(=O)Cn2c(-c3cccc(N)c3)c(Cl)nc(NC3CCC3)c2=O)cc1 [Example 166]	63	–	5	2	–
Nc1ccc(CNC(=O)Cn2c(-c3cccc(N)c3)c(Cl)nc(NC3CCC3)c2=O)cc1 [Example 158]	–	> 30	6	–	10
N=C(N)c1ccc(CNC(=O)Cn2c(-c3ccccc3N)cnc(NC3CCC3)c2=O)cc1 [Example 116]	1.2	–	27	12	–
CN(C)CC/N=C(\NCCN(C)C)c1ccc(CNC(=O)Cn2c(-c3cccc(N)c3)c(Cl)nc(NC3CCC3)c2=O)cc1 [Example 165]	63	–	5	4	–
